According to US20170202838A1, “IMMUNOMODULATOR” (TAIHO PHARMACEUTICAL CO., LTD., priority 2015, published 2017):

Columns and labels:
[1] = system: MC38; assay: Tumor volume of subcutaneous mouse colon cancer cell line, in vivo model (Example 9); details: Compound (I) 50 mg/kg, compared with control group (FIG. 11)
Protocol: (§1) A cell suspension of the mouse colon cancer cell line MC38 was prepared with the use of PBS(-) and 50% Matrigel, and the cell suspension was injected subcutaneously into mice at 1×10^6 cells/mouse. The mice were divided into groups when the average subcutaneous tumor volume reached approximately 50 mm^3, Compound (I) was administered at 50 mg/kg or the anti-PD-1 antibody was administered at 100 μg/mouse, and the tumor volume was measured with the elapse of time. The tumor volume was determined on the basis of the longer diameter and the shorter diameter of the tumor measured percutaneously in accordance with Equation A shown below.
Tumor volume (mm^3)=longer diameter (mm)×shorter diameter (mm)^2/2 (Equation A)

[2] = system: MC38; assay: In vitro growth of mouse colon cancer cell line MC38, CellTiter-Glo2.0 (Reference Example 1); assay type: cell-based; details: MC38, 3 days culture
Protocol: (§2) The mouse melanoma cell lines B16F10 and K1735M2 and the mouse colon cancer cell line MC38 were seeded in a 96-well plate at 3×10^3 cells/well. Compound (I) or the EGFR tyrosine kinase inhibitor (i.e., Erlotinib, Afatinib, AZD9291, or Co1686 (Rociletinib)) that had been diluted to the given concentration was added 24 hours later. Thereafter, culture was conducted for 3 days, and the number of cells was determined using CellTiter-Glo2.0 (Promega, G9243).

[3] = system: colon26; assay: Analysis of immunocytes in spleen cells in mouse model subcutaneously implanted with colon cancer cell line (Example 6); assay type: in vivo; details: Compound (I) 50 mg/kg and/or anti-PD-1 antibody 100 μg/mouse
Protocol: A cell suspension of the mouse colon cancer cell line (colon26) was prepared with the use of PBS(-) and 50% Matrigel, and the cell suspension was implanted into the syngeneic BALB/c mice via subcutaneous injection at 2×10^3 cells/mouse. The mice were divided into groups based on their body weights 1 day after implantation, and Compound (I) was administered thereto at 50 mg/kg and/or the anti-PD-1 antibody was administered thereto at 100 μg/mouse. A control group to which neither Compound (I) nor the anti-PD-1 antibody had been administered was also prepared. The spleen cells were sampled 21 days after implantation and analyzed via flow cytometry with the use of antibodies each reacting with a relevant immunocyte surface marker.

[4] = system: MC38; assay: Immune-system-associated gene expression in tumors via real-time PCR (Example 11); assay type: in vivo, mouse; details: final day of administration, relative to control
Protocol: as §1, with “(50 mg/kg)” for “was administered at 50 mg/kg”, “antibody (50 μg/mouse)” for “antibody”, “thereto alone or Compound (I) (50 mg/kg) was administered in combination with the anti-PD-1 antibody (50 μg/mouse),” for “at 100 μg/mouse,”
FIGS. 14 to 16 show changes in the immune-system-associated gene expression levels in tumors of the groups on the final day of administration of Compound (I). The tumor samples were obtained from the groups on the final day of administration of Compound (I) to prepare cDNA samples. The prepared cDNA samples were subjected to gene expression analysis via real-time PCR with the use of various immune-system-associated gene probes, and the results thereof were plotted. β-Actin was used as a control. Each plot indicates a gene expression level relative to a value of one of the controls. In the group to which Compound (I) had been administered, CD3, CD4, CD8, NK1.1, IL-2, IFN-γ, Perforin, Granzyme B, and CD69 gene expression levels increased, compared with those in the group to which Compound (I) had not been administered.

[5] = system: K1735M2; assay: In vitro growth of mouse melanoma cell line K1735M2, CellTiter-Glo2.0 (Reference Example 1); assay type: cell-based; details: K1735M2, 3 days culture
Protocol: as §2

[6] = system: EG.7-OVA; assay: Peripheral blood immunocyte analysis in mouse model subcutaneously implanted with OVA-expressing thymoma cell line (Example 5); assay type: in vivo; details: Compound (I) 50 mg/kg, 14 days after implantation, compared with control group and anti-PD-1 antibody group (FIG. 6)
Protocol: A cell suspension of the OVA-expressing mouse thymoma cell line (EG.7-OVA) was prepared with the use of PBS(-) and 50% Matrigel, and the cell suspension (1×10^4 cells/mouse) was implanted into the syngeneic C57BL/6n mice via subcutaneous injection. The mice were divided into groups based on their body weights 1 day after implantation, and Compound (I) was administered thereto at 50 mg/kg or the anti-PD-1 antibody was administered thereto at 100 μg/mouse. A control group to which neither Compound (I) nor the anti-PD-1 antibody had been administered was also prepared. The peripheral blood was sampled 14 days after implantation and analyzed via flow cytometry with the use of antibodies each reacting with a relevant immunocyte surface marker, so as to determine the relative number of CD4-positive cells, CD8-positive cells, and CD4-negative, CD8-negative, and NK1.1-positive cells. […] In the group to which Compound (I) had been administered, the number of all cells increased, compared with the control group and the group to which the anti-PD-1 antibody had been administered.

[7] = system: human peripheral blood mononuclear cells; assay: Induction of cytokine production in human peripheral blood mononuclear cells, Bio-Plex Pro cytokine assay (Example 7); assay type: cell-based; details: 2 days culture, no stimulant (FIG. 9)
Protocol: Human peripheral blood mononuclear cells were introduced into a human complete medium (i.e., RPMI-1640 supplemented with 10% heat-inactivated FBS, 100 U/ml penicillin, and 100 μg/ml streptomycin) to prepare a cell suspension (1×10^5 cells/ml). Compound (I), the EGFR tyrosine kinase inhibitor (i.e., AZD9291 or Erlotinib), or a cytokine-inducing positive control (i.e., Imiquimod) was added to the cell suspension. A control group to which the EGFR tyrosine kinase inhibitor and others were not added was also prepared (i.e., the non-treatment group). The culture solution was cultured in an incubator at 37° C. in the presence of 5% CO2 for 2 days. The culture supernatant was recovered, and various types of cytokines were inspected with the use of the Bio-Plex Pro human cytokine assay kit.

[8] = 21 days after implantation (FIG. 7)
[9] = 21 days after implantation, compared with control group (FIG. 8)

SMILES: C=CC(=O)N[C@H]1CCc2c(-c3cnc4ccccc4c3)c3c(N)ncnc3n2C1 [Compound (I), (S)—N-(4-amino-5-(quinolin-3-yl)-6,7,8,9-tetrahydropyrimido[5,4-b]indolizin-8-yl)acrylamide]
- extent of tumor growth inhibition (tumor volume) [1]: greater
- suppression of cell growth (number of cells) [2]: did not suppress the growth of any cells
- relative number of CD4-positive and CD69-positive cells in spleen cells [3, 8]: greater than those in the control group
- relative number of CD4-positive, CD44-positive, and CD62L-negative cells in spleen cells [3, 8]: greater than those in the control group
- CD44 expression level in CD4-positive cells (MFI) [3, 9]: increased
- CD62L expression level in CD4-positive cells (MFI) [3, 9]: decreased
- CD3 gene expression level in tumors ([4]; β-Actin control (FIG. 14)): increased
- CD4 gene expression level in tumors ([4]; β-Actin control (FIG. 14)): increased
- CD8 gene expression level in tumors ([4]; β-Actin control (FIG. 14)): increased
- IFN-γ gene expression level in tumors ([4]; β-Actin control (FIG. 15)): increased
- IL-2 gene expression level in tumors ([4]; β-Actin control (FIG. 15)): increased
- NK1.1 gene expression level in tumors ([4]; β-Actin control (FIG. 15)): increased
- CD69 gene expression level in tumors ([4]; β-Actin control (FIG. 16)): increased
- Granzyme B gene expression level in tumors ([4]; β-Actin control (FIG. 16)): increased
- Perforin gene expression level in tumors ([4]; β-Actin control (FIG. 16)): increased
- suppression of cell growth (number of cells) [5]: did not suppress the growth of any cells
- relative number of CD4-negative, CD8-negative, and NK1.1-positive cells in peripheral blood [6]: increased
- relative number of CD4-positive cells in peripheral blood [6]: increased
- relative number of CD8-positive cells in peripheral blood [6]: increased
- cytokine concentrations relative to the non-treatment group [7]: induced the production of various types of cytokines
